According to PubChem BioAssay AID623904 (Broad Institute, 2012):
Several values for one entry are separate records, joined by “and”; a condition that tells them apart may be missing. Equal values may be shown once. Activity calls are given as the source filed them.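 The calls were made as follows: active = growth inhibition with an AC50 at or below twice the top valid tested dose; inconclusive = flat curve at 30 to 70% inhibition, or poor fit; inactive = the rest, including growth increase.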

Columns and labels:
[1] = tested on: Candida glabrata growth, glucose medium, OD600, 48 h; experiment: C. glabrata growth inhibition on glucose, dose response, glucose medium, OD600, powder samples, set 2 (AID 623904)
[2] = as above; conditions: Candida glabrata growth, glucose medium, OD600, 48 h; at 6 µM (top of the series)

Row | SMILES | AC50 [1] | activity change, negative = inhibition [2]
1 | CCOC(=O)N1C(=O)C2(CCCCC2)N(c2ccc(C)cc2)C1=S | 1.85 µM and 2.09 µM | –
2 | Cc1ccc(N2CC(=O)NC2=S)cc1 | – | 2.6% (inactive)
3 | CCOC(=O)N1C(=O)N(c2ccc(C)cc2)C2(CCCCC2)C1=O | – | -17.3% (inactive)
4 | Cc1ccc(N2C(=S)N(C(=O)OCc3ccccc3)C(=O)C23CCCCC3)cc1 | – | 5.73% (inactive)
5 | CCOC(=O)N1C(=O)C2(CCC2)N(c2ccc(C)cc2)C1=S | > 12 µM (inactive) | –
6 | CC1/C=C/C=C\C=C\C=C\C=C\C=C\C=C\C(O[C@H]2OC(C)C(O)C(N)C2O)CC2OC(O)(CC(O)CC(O)C(O)CCC(O)CC(O)CC(=O)OC(C)C(C)C1O)CC(O)C2C(=O)O (stereo partly drawn) | 0.206 µM | –
7 | Cc1ccc(N2C(=S)N(C(=O)Oc3ccccc3)C(=O)C23CCCCC3)cc1 | – | 2.19% (inactive)
8 | O=C1NC(=S)N(c2ccccc2)C12CCCCC2 | – | 5.48% (inactive)
9 | Cc1ccc(N2C(=O)NC(=O)C23CCCCC3)cc1 | > 12 µM (inactive) | –
10 | CCOC(=O)N1C(=O)C2(CCCCC2)N(c2ccccc2)C1=S | 2.04 µM | –
11 | Cc1ccc(N2CC(=O)NC2=O)cc1 | – | 9.85% (inactive)
12 | CCOC(=O)N1C(=S)N(c2ccc(C)cc2)C(=O)C12CCCCC2 | > 12 µM (inactive) | –
13 | O=C1NC(=S)NC12CCCCC2 | – | -24.5% (inactive)
14 | O=C1NC(=S)N(c2ccc(F)cc2)C12CCCCC2 | – | 11% (inactive)
15 | CCOC(=O)N1C(=O)C2(CCCCC2)N(c2ccc(F)cc2)C1=S | 2.34 µM | –
16 | CCOC(=O)N1C(=S)N(c2ccc(C)cc2)C2(CCCCC2)C1=NCc1ccccc1 | > 12 µM (inactive) | –
17 | CCOC(=O)N1C(=S)NC(=O)C12CCCCC2 | > 12 µM (inactive) | –
18 | CC(C)N1C(=S)NC(=O)C12CCCCC2 | – | -10.3% (inactive)
19 | CCCCN1C(=O)N(c2ccc(C)cc2)C2(CCCCC2)C1=O | – | -27.1% (inactive)
20 | CCOC(=O)N1C(=O)C2(CCCCC2)N(c2cccc(C)c2)C1=S | 2.34 µM | –
21 | Cc1ccc(N2C(=S)NC(=O)C23CCCCC3)cc1 | – | -5.97% (inactive)
22 | CCCC(=O)N1C(=O)C2(CCCCC2)N(c2ccc(C)cc2)C1=S | 1.48 µM | –

Row | SMILES | AC50 [1] | activity change, negative = inhibition [2]
23 | Cc1ccc(N2C(=O)C3(CCCCC3)NC2=S)cc1 | > 12 µM (inactive) | –
24 | Cc1ccc(N2C(=O)N(C)C(=O)C23CCCCC3)cc1 | > 12 µM (inactive) | –
25 | COC(=O)N1C(=O)C2(CCCCC2)N(c2ccc(C)cc2)C1=S | 5.93 µM | –
26 | CCOC(=O)N1C(=O)C2(CCCC2)N(c2ccc(C)cc2)C1=S | > 12 µM (inactive) | –
27 | CCOC(=O)N1C(=O)C(C)(C)N(c2ccc(C)cc2)C1=S | – | -7.97% (inactive)
28 | CCCCN1C(=O)N(c2ccc(C)cc2)C2(CCCCC2)C1=S | – | -6.75% (inactive)
29 | CCCCN1C(=O)C2(CCCCC2)N(c2ccc(C)cc2)C1=S | – | 5.19% (inactive)
30 | Cc1ccc(N2C(=S)N(S(C)(=O)=O)C(=O)C23CCCCC3)cc1 | > 12 µM (inactive) | –
31 | CCOC(=O)N1C(=O)C2(CCCCC2)N(C(C)C)C1=S | – | 10.8% (inactive)
32 | CCOC(=O)N1C(=O)C2(CCCCC2)N(c2ccc(C(F)(F)F)cc2)C1=S | 4.15 µM | –
33 | Cc1ccc(N2C(=O)C(=O)NC2=S)cc1 | > 12 µM (inactive) | –
34 | CCOC(=O)N1C(=O)C2(CCCCC2)N(c2ccc(-c3ccccc3)cc2)C1=S | – | -30.1% (inactive)
35 | CCOC(=O)N1C(=O)C2(CCCCC2)N(c2ccc(C#N)cc2)C1=S | 3.29 µM | –
36 | Cc1ccc(N2C(=S)NC(=O)C2(C)C)cc1 | – | 46.6% (inactive)
37 | Cc1ccc(N2C(=S)NC(=O)C23CCCC3)cc1 | – | -25.3% (inactive)
38 | Cc1ccc(N2C(=S)N(C)C(=O)C23CCCCC3)cc1 | – | 2.67% (inactive) and 7.65% (inactive)
39 | CCOC(=O)N1C(=O)C2(CCCCC2)NC1=S | > 12 µM (inactive) | –
40 | Cc1ccc(N2C(=S)NC(=O)C23CCC3)cc1 | – | 9.11% (inactive)
41 | CCOC(=O)N1C(=O)C2(CCOCC2)N(c2ccc(C)cc2)C1=S | > 12 µM (inactive) | –
42 | Cc1ccc(N2C(=S)NC(=O)C23CCOCC3)cc1 | – | -7.64% (inactive)
43 | CCOC(=O)N1C(=O)C2(CCCCC2)N(c2ccc(C(C)(C)C)cc2)C1=S | – | -18.2% (inactive)
